Measurements: patent US20150094321A1, “COMBINATION” (GlaxoSmithKline LLC, priority 2009, published 2015)

What was measured:
Assay in all cases: Cell growth inhibition assay
Format in all cases: cell-based
[1] = tested on: MDA-MB-453; conditions: Homo sapiens, MDA-MB-453, MDA-MB-453, breast, HER2+, PIK3CA H1047R; single agent; read-out: IC50 Single Agent (mean +/- std)
Experimental: (§1) Human breast tumor lines. BT-474, HCC1419, HCC1937, HCC1954, HCC202, KPL-1, MDA-MB-157, MDA-MB-175-VII, MDA-MB-361, MDA-MB-453, SK-BR-3, SUM225PE, UACC893, and ZR-75-1; lung tumor line, CALU-3; and melanoma line, CHL-1, were from ATCC. Human breast tumor line JIMT-1 was from European Collection of Cell Cultures (UK). Human breast tumor lines SUM149PT, SUM190PT and SUM52PE were from Asterand. These lines were cultured in RPMI 1640 medium containing 10% fetal bovine serum (FBS). A head and neck tumor line, LICR LON HN5 (HN5), a gift from the Institute of Cancer Research, Surrey, U.K, was cultured in Dulbecco's modified Eagle medium (DMEM) containing 5% FBS; KPL-4 breast tumor cell line was kindly provided by Dr Junichi Kurebayashi (Kawasaki Medical School, Okayama, Japan) and cultured in DMEM containing 5% FBS. JIMT-1 is a line derived from a patient clinically resistant to trastuzumab (Herceptin®). BT-474-J4 is a single cell clone derived from a pool of BT-474 cells that were selected to grow in lapatinib to a concentration of 3 μM.
(§2) All cells were cultured for a minimum of 72 hours prior to cell plating. Cells were assayed in a 96-well tissue culture plate (NUNC 136102) of RPMI medium containing 10% FBS for all cells at 2,000 cells per well except KPL-4 and HN5 which were plated in DMEM containing 5% FBS at 500 cells per well. Approximately 24 hours after plating, cells were exposed to ten, two-fold or three-fold serial dilutions of compound or the combination of the two agents at a constant molar to molar ratio of 1:1 Compound A to Compound B in RPMI media containing 10% FBS or DMEM containing 5% FBS. Cells were incubated in the presence of compounds for 3 days. ATP levels were determined by adding Cell Titer Glo® (Promega) according to the manufacturer's protocol. Briefly, Cell Titer Glo® was added each plate, incubated for 20 minutes then luminescent signal was read on the SpectraMax L plate reader with a 0.5 sec integration time.
(§3) Inhibition of cell growth was estimated after treatment with compound or combination of compounds for three days and comparing the signal to cells treated with vehicle (DMSO). Cell growth was calculated relative to vehicle (DMSO) treated control wells. Concentration of compound that inhibits 50% of control cell growth (IC50) was interpolated using nonlinear regression with the equation, y=(A+(B−A)/(1+(C/x)̂D))), where A is the minimum response (ymin), B is the maximum response (ymax), C is the inflection point of the curve (EC50) and D is the Hill coefficient. […]

[2] = tested on: MDA-MB-361; conditions: Homo sapiens, MDA-MB-361, MDA-MB-361, breast, HER2+, PIK3CA E545K; single agent; read-out: IC50 Single Agent (mean +/- std)
Experimental: as §1, §2, §3

[3] = tested on: SUM190PT; conditions: Homo sapiens, breast, HER2+, PIK3CA H1047R, single agent, read-out: IC50 Single Agent (mean +/- std)
Experimental: as §1, §2, §3

[4] = tested on: UACC893; conditions: Homo sapiens, UACC-893, UACC893, breast, HER2+, PIK3CA H1047R; single agent; read-out: IC50 Single Agent (mean +/- std)
Experimental: as §1, §2, §3

[5] = tested on: SUM52PE; conditions: Homo sapiens, breast, FGFR2+, WT, single agent, read-out: IC50 Single Agent (mean +/- std)
Experimental: as §1, §2, §3

[6] = tested on: HN5; conditions: Homo sapiens, HN5, HN5, H&N, EGFR+, WT; single agent; read-out: IC50 Single Agent (mean +/- std)
Experimental: as §1, §2, §3

[7] = tested on: CHL-1; conditions: Homo sapiens, CHL-1, CHL-1, melanoma, WT; single agent; read-out: IC50 Single Agent (mean +/- std)
Experimental: as §1, §2, §3

[8] = tested on: SUM149PT; conditions: Homo sapiens, breast, PTEN low, single agent, read-out: IC50 Single Agent (mean +/- std)
Experimental: as §1, §2, §3

[9] = tested on: Calu-3; conditions: Homo sapiens, Calu-3, Calu-3, lung, HER2+, WT; single agent; read-out: IC50 Single Agent (mean +/- std)
Experimental: as §1, §2, §3

Measured: IC50

CC(=O)Nc1cccc(-n2c(=O)n(C3CC3)c(=O)c3c(Nc4ccc(I)cc4F)n(C)c(=O)c(C)c32)c1 [Compound A, N-{3-[3-cyclopropyl-5-(2-fluoro-4-iodo-phenylamino)-6,8-dimethyl-2,4,7-trioxo-3,4,6,7-tetrahydro-2H-pyrido[4,3-d]pyrimidin-1-yl]phenyl}acetamide]
> 1000 nM: [1] | [2] | [3] | [4] | [5]

Cn1ncc(Cl)c1-c1cc(C(=O)N[C@H](CN)Cc2ccc(F)c(F)c2)oc1Cl [Compound B, N-{(1S)-2-amino-1-[(3,4-difluorophenyl)methyl]ethyl}-5-chloro-4-(4-chloro-1-methyl-1H-pyrazol-5-yl)-2-furancarboxamide]
> 1000 nM: [6] | [7] | [8] | [9]
